Measured values from publication PMC8115619, “Generation of a chemical genetic model for JAK3” (Scientific Reports, 2021).
“Also recorded” adds a separate entry of the source.

Key:
[1] = test system: IL-10 induced STAT3 phosphorylation in BMDMs; assay: IL-10 induced STAT3 phosphorylation in macrophages; type: cell-based, mouse; settings: wild type BMDMs, inhibitor 2 h, 10 ng/ml IL-10
Description: (A) BMDMs were isolated from wild type mice. Cells were incubated with the indicated inhibitors in μM for 2 h before stimulation with 10 ng/ml IL-4 for 30 min. The levels of phosphorylated STAT6 were then determined by immunoblotting. (B) As (A) except cells were stimulated 10 ng/ml GM-CSF and the levels of phosphorylated STAT5 determined. (C) As (A) except cells were stimulated 10 ng/ml IL-10 and the levels of phosphorylated STAT3 determined. (D) As (A) except cells were stimulated 10 ng/ml IFNβ and the levels of phosphorylated STAT1 determined. For A–D, levels of ERK1/2 were determined as a loading control.
Bone marrow derived macrophages (BMDMs) were cultured as described. Briefly, bone marrow was flushed in PBS from the femurs and tibias of mice. Cells were cultured on bacterial grade plastic for 7 days at 37 °C, 5% CO2. Cells were then detached using Versene (Gibco), re-plated on tissue culture plastic in BMDM media (in DMEM supplemented with 10% heat inactivated FBS (Labtech), 2 mM L-glutamine, 100 U/ml penicillin G, 100 μg/ml streptomycin and 0.25 μg/ml amphotericin, 5 ng/ml M-CSF) and used within 48 h. Where indicated cells were stimulated with 10 ng/ml IL-4, 10 ng/ml GM-CSF, 10 ng/ml IL-10 or 10 ng/ml IFNβ. All cytokines were from PeproTech.
Cells were lysed directly into SDS sample buffer and aliquots run on 10% polyacrylamide gels using standard methods. Proteins were transferred onto nitrocellulose membranes, and specific proteins were detected by immunoblotting. Antibodies against tyrosine phosphorylated STATs were from Cell Signaling Technology (phospho-STAT1 #9167, phospho-STAT3 #9131, phospho-STAT5 #4322 and phospho-STAT6 #9361). […] Bands were detected using Clarity ECL reagents from BioRad and imaged on a Licor Odyssey Fc system. Quantification was carried out using Licor Image Studio software. After correction for the ERK1/2 levels to account for loading differences, percentage inhibition was calculated relative to the IL-4 stimulated condition. IC50 values were calculated using the same methods as for the in vitro IC50 values.

IR = IR (Homo sapiens, UniProt P06213); assay: Selectivity screen IR; type: biochemical; settings: 1 µM inhibitor, mean
Description: (§1) For the in vitro kinase assay, JAK3 (5–20 mU diluted in 50 mM Tris pH 7.5, 0.1 mM EGTA, 0.05% β-mercaptoethanol, 1 mg/ml BSA) was assayed against PDKtide ([…]) in a final volume of 25.5 µl containing 50 mM Tris pH 7.5, 0.1 mM EGTA, 0.05% β-mercaptoethanol, 100 µM substrate peptide, 10 mM magnesium acetate and 0.02 mM [33P-γ-ATP] (50–1000 cpm/pmole) and incubated for 30 min at room temperature. Assays were started by the addition of the ATP and stopped by addition of 5 µl of 0.5 M (3%) orthophosphoric acid and then harvested onto P81 Unifilter plates with a wash buffer of 50 mM orthophosphoric acid. To determine the Km for ATP, assays were run using 1, 5, 10, 20, 50, 100, 200, 400, 500 μM ATP and Km derived by non-linear regression fitting to the Michaelis–Menten equation v = Vmax[S]/(Km + [S]). IC50 values for inhibitors via non-linear regression using a parameter model: Y = Bottom + (Top–Bottom)/(1 + (IC50/X)^HillSlope). Non-linear regression was carried out in Prism (version 8). In vitro selectivity screen was carried out as described previously.

IKKb = IKKb (Homo sapiens, UniProt O14920); assay: Selectivity screen IKKb; type: biochemical; settings: 1 µM inhibitor, mean
Description: as §1

VEG-FR = VEG-FR (Homo sapiens, UniProt P17948); assay: Selectivity screen VEG-FR; type: biochemical; settings: 1 µM inhibitor, mean
Description: as §1

TIE2 = TIE2 (Homo sapiens, UniProt Q02763); assay: Selectivity screen TIE2; type: biochemical; settings: 1 µM inhibitor, mean
Sequence of TIE2 (Q02763 23-1124): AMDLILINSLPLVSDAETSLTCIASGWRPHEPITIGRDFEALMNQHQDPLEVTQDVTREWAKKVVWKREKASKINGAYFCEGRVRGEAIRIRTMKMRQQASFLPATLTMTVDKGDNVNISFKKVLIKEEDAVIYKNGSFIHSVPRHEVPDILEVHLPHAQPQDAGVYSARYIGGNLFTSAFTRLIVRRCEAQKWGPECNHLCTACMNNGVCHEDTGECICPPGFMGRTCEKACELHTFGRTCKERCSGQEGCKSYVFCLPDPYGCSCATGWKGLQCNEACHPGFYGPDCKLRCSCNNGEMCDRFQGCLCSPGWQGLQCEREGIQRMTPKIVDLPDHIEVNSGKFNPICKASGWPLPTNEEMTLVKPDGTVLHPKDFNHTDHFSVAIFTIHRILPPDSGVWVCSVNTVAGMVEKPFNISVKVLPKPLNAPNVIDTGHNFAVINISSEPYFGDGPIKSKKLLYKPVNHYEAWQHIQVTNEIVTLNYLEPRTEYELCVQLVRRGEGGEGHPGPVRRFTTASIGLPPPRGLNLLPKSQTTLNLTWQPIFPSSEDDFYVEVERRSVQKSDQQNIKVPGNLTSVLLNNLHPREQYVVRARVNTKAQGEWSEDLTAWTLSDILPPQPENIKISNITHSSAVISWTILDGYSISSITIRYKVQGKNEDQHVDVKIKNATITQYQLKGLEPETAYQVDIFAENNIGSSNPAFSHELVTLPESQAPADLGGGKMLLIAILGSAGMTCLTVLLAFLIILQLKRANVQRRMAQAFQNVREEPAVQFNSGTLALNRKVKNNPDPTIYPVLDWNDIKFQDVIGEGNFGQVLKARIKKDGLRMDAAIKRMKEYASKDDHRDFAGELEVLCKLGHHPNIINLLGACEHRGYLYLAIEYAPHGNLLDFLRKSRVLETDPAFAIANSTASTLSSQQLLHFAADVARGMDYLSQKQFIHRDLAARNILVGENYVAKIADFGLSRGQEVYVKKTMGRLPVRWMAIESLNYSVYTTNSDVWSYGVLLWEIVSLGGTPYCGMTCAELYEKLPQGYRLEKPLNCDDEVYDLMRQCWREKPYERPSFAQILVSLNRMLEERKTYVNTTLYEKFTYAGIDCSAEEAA
Description: as §1

MARK1 = MARK1 (Homo sapiens, UniProt Q9P0L2); assay: Selectivity screen MARK1; type: biochemical; settings: 1 µM inhibitor, mean
Sequence of MARK1 (Q9P0L2 whole entry): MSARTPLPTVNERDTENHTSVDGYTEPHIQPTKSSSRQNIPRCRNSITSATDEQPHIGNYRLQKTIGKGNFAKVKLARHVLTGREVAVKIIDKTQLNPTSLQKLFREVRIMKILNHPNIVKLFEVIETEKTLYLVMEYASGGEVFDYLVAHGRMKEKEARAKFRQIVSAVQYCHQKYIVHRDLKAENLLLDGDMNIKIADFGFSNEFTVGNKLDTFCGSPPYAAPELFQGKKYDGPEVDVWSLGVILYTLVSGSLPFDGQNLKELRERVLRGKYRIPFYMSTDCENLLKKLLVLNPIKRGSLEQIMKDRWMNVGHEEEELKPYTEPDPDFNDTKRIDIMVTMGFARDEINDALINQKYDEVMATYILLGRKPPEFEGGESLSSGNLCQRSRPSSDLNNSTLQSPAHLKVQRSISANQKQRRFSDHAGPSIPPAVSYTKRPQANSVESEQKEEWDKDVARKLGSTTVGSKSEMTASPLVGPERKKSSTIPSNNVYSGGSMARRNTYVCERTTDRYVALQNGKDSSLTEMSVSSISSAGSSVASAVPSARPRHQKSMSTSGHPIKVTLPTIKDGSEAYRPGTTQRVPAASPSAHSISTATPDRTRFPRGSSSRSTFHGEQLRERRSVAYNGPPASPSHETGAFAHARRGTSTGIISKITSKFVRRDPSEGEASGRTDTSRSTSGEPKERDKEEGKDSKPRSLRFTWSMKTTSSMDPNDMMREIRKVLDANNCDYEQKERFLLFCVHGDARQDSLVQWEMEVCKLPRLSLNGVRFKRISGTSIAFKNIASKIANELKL
Description: as §1

MAP4K3 = MAP4K3 (Homo sapiens, UniProt Q8IVH8); assay: Selectivity screen MAP4K3; type: biochemical; settings: 1 µM inhibitor, mean
Sequence of MAP4K3 (Q8IVH8 whole entry): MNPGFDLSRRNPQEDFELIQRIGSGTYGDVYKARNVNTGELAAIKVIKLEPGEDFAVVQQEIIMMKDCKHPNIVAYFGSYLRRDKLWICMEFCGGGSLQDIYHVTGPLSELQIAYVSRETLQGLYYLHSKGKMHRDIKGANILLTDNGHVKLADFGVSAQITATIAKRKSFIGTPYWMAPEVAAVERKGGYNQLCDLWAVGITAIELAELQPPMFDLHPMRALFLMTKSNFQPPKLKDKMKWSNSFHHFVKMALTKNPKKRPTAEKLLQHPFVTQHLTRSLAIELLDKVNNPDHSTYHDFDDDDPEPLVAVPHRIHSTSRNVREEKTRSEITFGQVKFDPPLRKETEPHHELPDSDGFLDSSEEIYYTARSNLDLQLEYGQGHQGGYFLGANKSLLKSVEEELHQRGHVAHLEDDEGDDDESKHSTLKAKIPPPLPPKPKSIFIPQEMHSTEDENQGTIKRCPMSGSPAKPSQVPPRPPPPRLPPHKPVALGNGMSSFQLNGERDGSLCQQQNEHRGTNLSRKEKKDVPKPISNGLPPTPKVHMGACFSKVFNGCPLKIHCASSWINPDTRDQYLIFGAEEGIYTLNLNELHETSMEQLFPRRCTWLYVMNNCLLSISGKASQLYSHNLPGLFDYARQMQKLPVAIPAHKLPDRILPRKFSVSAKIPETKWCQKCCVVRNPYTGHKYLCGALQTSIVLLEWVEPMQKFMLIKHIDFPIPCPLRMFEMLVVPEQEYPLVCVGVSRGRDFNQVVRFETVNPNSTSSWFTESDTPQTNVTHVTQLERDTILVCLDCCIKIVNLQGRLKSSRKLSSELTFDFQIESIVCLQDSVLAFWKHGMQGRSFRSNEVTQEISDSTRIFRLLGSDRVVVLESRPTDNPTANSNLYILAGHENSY
Description: as §1

SIK3 = SIK3 (Homo sapiens, UniProt Q9Y2K2); assay: Selectivity screen SIK3; type: biochemical; settings: 1 µM inhibitor, mean
Sequence of SIK3 (Q9Y2K2 whole entry): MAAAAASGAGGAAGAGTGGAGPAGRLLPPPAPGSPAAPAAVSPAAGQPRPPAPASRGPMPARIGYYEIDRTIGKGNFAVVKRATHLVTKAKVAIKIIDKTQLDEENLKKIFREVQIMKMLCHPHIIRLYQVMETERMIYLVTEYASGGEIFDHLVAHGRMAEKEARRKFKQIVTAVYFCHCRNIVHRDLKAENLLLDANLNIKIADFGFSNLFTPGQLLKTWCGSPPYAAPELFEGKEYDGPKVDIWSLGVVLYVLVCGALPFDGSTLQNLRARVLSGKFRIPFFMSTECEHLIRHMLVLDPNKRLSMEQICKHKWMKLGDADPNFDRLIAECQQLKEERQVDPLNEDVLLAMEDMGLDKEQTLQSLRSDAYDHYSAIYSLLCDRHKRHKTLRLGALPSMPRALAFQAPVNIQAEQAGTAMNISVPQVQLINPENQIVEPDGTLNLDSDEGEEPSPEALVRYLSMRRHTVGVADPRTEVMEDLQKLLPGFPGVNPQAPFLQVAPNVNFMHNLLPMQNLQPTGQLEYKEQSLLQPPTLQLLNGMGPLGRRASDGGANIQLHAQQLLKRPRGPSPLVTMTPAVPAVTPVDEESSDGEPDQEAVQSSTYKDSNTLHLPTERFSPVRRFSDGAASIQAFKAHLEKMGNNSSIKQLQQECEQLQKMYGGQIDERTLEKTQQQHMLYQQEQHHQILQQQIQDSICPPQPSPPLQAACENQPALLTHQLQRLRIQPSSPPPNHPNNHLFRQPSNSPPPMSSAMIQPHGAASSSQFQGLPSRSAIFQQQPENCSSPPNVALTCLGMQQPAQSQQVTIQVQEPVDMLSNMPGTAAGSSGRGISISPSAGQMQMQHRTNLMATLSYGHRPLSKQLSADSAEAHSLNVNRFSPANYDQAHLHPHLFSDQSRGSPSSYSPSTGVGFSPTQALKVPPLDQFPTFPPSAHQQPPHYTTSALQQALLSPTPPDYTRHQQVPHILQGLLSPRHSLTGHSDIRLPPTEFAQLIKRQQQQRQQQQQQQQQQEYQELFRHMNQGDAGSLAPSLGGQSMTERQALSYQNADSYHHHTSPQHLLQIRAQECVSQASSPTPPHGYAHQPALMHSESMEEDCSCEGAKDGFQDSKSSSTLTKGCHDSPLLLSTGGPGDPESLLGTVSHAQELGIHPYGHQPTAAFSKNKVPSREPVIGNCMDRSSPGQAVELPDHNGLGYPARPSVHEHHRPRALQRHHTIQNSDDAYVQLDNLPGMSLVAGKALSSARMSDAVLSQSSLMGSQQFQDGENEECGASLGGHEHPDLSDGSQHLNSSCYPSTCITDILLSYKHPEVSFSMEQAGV
Description: as §1

CDK9-Cyclin T1 = CDK9-Cyclin T1 (Homo sapiens, UniProt P50750); assay: Selectivity screen CDK9-Cyclin T1; type: biochemical; settings: 1 µM inhibitor, mean
Description: as §1

EPH-B2 = EPH-B2 (Homo sapiens, UniProt P29323); assay: Selectivity screen EPH-B2; type: biochemical; settings: 1 µM inhibitor, mean
Description: as §1

CHK2 = CHK2 (Homo sapiens, UniProt O96017); assay: Selectivity screen CHK2; type: biochemical; settings: 1 µM inhibitor, mean
Description: as §1

MEKK1 = MEKK1 (Homo sapiens, UniProt Q13233); assay: Selectivity screen MEKK1; type: biochemical; settings: 1 µM inhibitor, mean
Description: as §1

ASK1 = ASK1 (Homo sapiens, UniProt Q99683); assay: Selectivity screen ASK1; type: biochemical; settings: 1 µM inhibitor, mean
PIM1 = PIM1 (Homo sapiens, UniProt P11309); assay: Selectivity screen PIM1; type: biochemical; settings: 1 µM inhibitor, mean
Description: as §1

CK1δ = CK1δ (Homo sapiens, UniProt P48730); assay: Selectivity screen CK1δ; type: biochemical; settings: 1 µM inhibitor, mean
Sequence of CK1δ (P48730 whole entry): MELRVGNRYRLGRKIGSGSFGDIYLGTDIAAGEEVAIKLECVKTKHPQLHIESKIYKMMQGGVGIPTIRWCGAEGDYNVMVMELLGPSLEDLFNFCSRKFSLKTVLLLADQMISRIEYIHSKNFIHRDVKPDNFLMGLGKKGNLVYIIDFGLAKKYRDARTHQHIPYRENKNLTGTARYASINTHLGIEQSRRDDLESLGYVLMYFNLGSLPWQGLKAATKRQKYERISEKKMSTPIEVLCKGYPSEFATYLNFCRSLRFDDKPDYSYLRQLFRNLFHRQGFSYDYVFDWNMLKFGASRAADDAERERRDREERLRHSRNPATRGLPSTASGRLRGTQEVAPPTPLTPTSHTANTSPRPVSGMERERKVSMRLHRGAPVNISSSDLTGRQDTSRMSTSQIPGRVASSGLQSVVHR
Description: as §1

TSSK1 = TSSK1 (Homo sapiens, UniProt Q9BXA7); assay: Selectivity screen TSSK1; type: biochemical; settings: 1 µM inhibitor, mean
Sequence of TSSK1 (Q9BXA7 whole entry): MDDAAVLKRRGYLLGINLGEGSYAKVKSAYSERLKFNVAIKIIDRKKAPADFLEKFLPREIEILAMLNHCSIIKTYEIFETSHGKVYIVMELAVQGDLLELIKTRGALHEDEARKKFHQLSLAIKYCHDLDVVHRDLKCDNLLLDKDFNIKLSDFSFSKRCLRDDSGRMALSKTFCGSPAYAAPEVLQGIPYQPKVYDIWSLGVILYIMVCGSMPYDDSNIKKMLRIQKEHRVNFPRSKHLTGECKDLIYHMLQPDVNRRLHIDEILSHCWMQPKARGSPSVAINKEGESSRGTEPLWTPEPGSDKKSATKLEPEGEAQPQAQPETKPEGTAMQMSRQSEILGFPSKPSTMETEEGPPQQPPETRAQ
Description: as §1

Row | SMILES | effect on IL-10 signaling (IL-10 induced STAT3 phosphorylation) [1] | effect on IL-10 signaling (IL-10 induced STAT3 phosphorylation) ([1]; listed as PF-0665160) | activity remaining in the presence of the inhibitor: IR (IR) | activity remaining in the presence of the inhibitor: IKKb (IKKb) | activity remaining in the presence of the inhibitor: VEG-FR (VEG-FR) | activity remaining in the presence of the inhibitor: TIE2 (TIE2) | activity remaining in the presence of the inhibitor: MARK1 (MARK1) | activity remaining in the presence of the inhibitor: MAP4K3 (MAP4K3) | activity remaining in the presence of the inhibitor: SIK3 (SIK3) | activity remaining in the presence of the inhibitor: CDK9-Cyclin T1 (CDK9-Cyclin T1) | activity remaining in the presence of the inhibitor: EPH-B2 (EPH-B2) | activity remaining in the presence of the inhibitor: CHK2 (CHK2) | activity remaining in the presence of the inhibitor: MEKK1 (MEKK1) | activity remaining in the presence of the inhibitor: ASK1 (ASK1) | activity remaining in the presence of the inhibitor: PIM1 (PIM1) | activity remaining in the presence of the inhibitor: CK1δ (CK1δ) | activity remaining in the presence of the inhibitor: TSSK1 (TSSK1)
1 | C=CC(=O)N1C[C@H](Nc2ncnc3[nH]ccc23)CC[C@@H]1C [PF-06651600, 1-((2S,5R)-5-((7H-Pyrrolo[2,3-d]pyrimidin-4-yl)amino)-2-methylpiperidin-1-yl)prop-2-en-1-one, reference compound] | did not block | no effect | – | – | – | – | – | – | – | – | – | – | – | – | – | – | –
2 | C=CC(=O)Nc1cccc(CNc2nc(Nc3ccc(N4CCN(C)CC4)cc3OC)ncc2Cl)c1 [TL6-144] | – | – | 11 | 100 | 39 | 87 | 87 | 83 | 89 | 95 | 96 | 38 | 95 | 108 | 95 | 83 | 34
3 | C=CC(=O)Nc1cccc(CNc2nc(Nc3ccc(N4CCOCC4)cc3)ncc2Cl)c1 [TL8-52] | no effect; also recorded: did not block | – | 15 | 104 | 6 | 116 | 44 | 55 | 59 | 80 | 81 | 75 | 103 | 93 | 111 | 110 | 57
